The source of these data is publication PMC10786919, “Design-rules for stapled peptides with in vivo activity and their application to Mdm2/X antagonists” (Nature Communications, 2024).

Molecules are shown by their SMILES. ≈ marks a conversion by molar mass, not a printed value. Like-named read-outs stand apart in the source and are kept apart here. Positions of bridges follow the written chain, without caps; N, C: chain ends. Non-standard residues stand in square brackets, D forms with d. Residues, ends and D or L forms follow the SMILES beside them. Lys(N3) = [N-]=[N+]=NCCCC[C@H](N)C(=O)O; R8 = C=CCCCCCC[C@@](C)(N)C(=O)O; Cba = N[C@@H](CC1CCC1)C(=O)O; S5 = C=CCCC[C@](C)(N)C(=O)O; βAla = NCCC(=O)O

The nature of data set [1]: Experimental LogD (partition coefficient). Conditions: for logD: not stated, Partition Coeff LogD.
A further data set is described as follows: EPSA. The data set is classed as physicochemical.
The nature of a further data set: in vitro. In a few lines:
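Azido-peptide permeability was read as loss of NanoBRET signal (donor 450 nm, acceptor 610 nm) after adding NanoBret618-azide at 10 μM final.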

Data set [2] can be described thus: Solubility assay (kinetic solubility, PBS pH 7). The data set is classed as physicochemical. Conditions: pH 7, PBS; for solubility kinetic: pH 7, aqueous buffer, kinetic from dmso stock, read-out: Solubility. The procedure, abridged:
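Std: 10 mM stock → 100 µM in ACN/MeOH/DMSO (10:80:10). Sol. [µM] = (sample peak area / std peak area) × std conc.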

A short description of data set [3]: Lactate dehydrogenase (LDH) release assay. It counts as cell-based. The procedure, abridged: (§1)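 HCT116 cells stably carrying a p53-responsive β-lactamase reporter, seeded at 8000 cells/well, exposed to compound with 0.5% final DMSO. LDH release read with the CytoTox-ONE membrane integrity kit. Values are geometric means of at least three biological replicates.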

A further data set deals with HCT116 cells. In words: Lactate dehydrogenase (LDH) release assay. The data set is classed as cell-based. The procedure, abridged: as §1
Data set [4] concerns Jump-In T-REx CHO-K1 BLA cells. In words: cells. The data set is classed as cell-based. Conditions: Supplementary Table 1; 0% serum, 4 hours.
The mark [5] stands for this setting: Nanoclick permeability assay EC50.
The mark [6] stands for this setting: 0% FBS 4Hr, read-out: LDH: Cytotoxicity assay: EC50.
Where [7] appears, read: 10% FBS 16Hr, read-out: LDH: Cytotoxicity assay: EC50.

For orientation: EC50 means the concentration that produces a half-maximal response. For the compound `CC(=O)N[C@@H](CCCCN=[N+]=[N-])C(=O)N[C@@H](CCCCN)C(=O)N[C@@H](CCCCN)C(=O)N[C@@H](CC(C)C)C(=O)N[C@H](C(=O)N[C@@H](Cc1ccccc1)C(=O)N[C@]1(C)CCCCCCC=CCCC[C@@](C)(C(=O)N[C@@H](CO)C(=O)N[C@@H](C)C(=O)N[C@@H](C)C(N)=O)NC(=O)[C@H](CC2CCC2)NC(=O)[C@H](CCC(N)=O)NC(=O)[C@H](C)NC(=O)[C@H](Cc2c[nH]c3ccccc23)NC(=O)[C@H](Cc2ccc(O)cc2)NC(=O)[C@H](CCC(=O)O)NC1=O)[C@@H](C)O` [MP-026], the “Partition Coeff LogD” value in data set [1] is on record as “Poorly Behaved”. The compound also gave an EPSA in “EPSA” (EPSA) of 213 A^2. Moreover, the cell entry EC50 in “in vitro” (setting [5]) stood at 1030 nM. In data set [2], the solubility kinetic is 3 µM (≈ 6.47 µg/mL). The EC50 in data set [3] (LDH: Cytotoxicity assay: EC50) was above 50000 nM. Further, the “LDH: Cytotoxicity assay: % Effect” value in the data set on HCT116 cells came out at 25.62%.

In the case of `CC(=O)N[C@@H](CCC(=O)O)C(=O)N[C@@H](CCCCN=[N+]=[N-])C(=O)NCCCCCC(=O)N[C@H](C(=O)N[C@@H](CO)C(=O)N[C@@H](Cc1ccccc1)C(=O)N[C@]1(C)CCCCCCC=CCCC[C@@](C)(C(N)=O)NC(=O)[C@H](CC(C)C)NC(=O)[C@H](CC(C)C)NC(=O)[C@H](C)NC(=O)[C@H](Cc2c[nH]c3ccccc23)NC(=O)[C@H](Cc2ccc(O)cc2)NC(=O)[C@H](CCC(=O)O)NC1=O)[C@@H](C)O` [MP-027], the “Partition Coeff LogD” value in data set [1] is “Poorly Behaved”. For the same compound, in the data set “EPSA”, the EPSA result was “Poorly Behaved”. In addition, the cell entry EC50 in the data set “in vitro” (setting [5]) amounted to 415 nM. In addition, the Solubility entry in data set [2] is listed as “Poorly Behaved”. The EC50 in data set [3] (LDH: Cytotoxicity assay: EC50) is above 50000 nM. Moreover, the “LDH: Cytotoxicity assay: % Effect” value in the data set on HCT116 cells amounted to 2.385%.

Turning to `CC(=O)N[C@@H](CCCCN=[N+]=[N-])C(=O)N[C@H](C(=O)N[C@@H](Cc1ccccc1)C(=O)N[C@]1(C)CCCCCCC=CCCC[C@@](C)(C(=O)N[C@@H](C)C(=O)N[C@@H](C)C(=O)N[C@@H](C)C(=O)N[C@@H](C)C(=O)N[C@@H](C)C(=O)N[C@H](C)C(N)=O)NC(=O)[C@H](CC2CCC2)NC(=O)[C@H](CCC(N)=O)NC(=O)[C@H](C)NC(=O)[C@H](Cc2c[nH]c3ccccc23)NC(=O)[C@H](Cc2ccc(O)cc2)NC(=O)[C@H](CCC(=O)O)NC1=O)[C@@H](C)O` [MP-062] (Ac-[Lys(N3)]TF[R8]EYWAQ[Cba][S5]AAAAA[dA]-NH2; staple 4-11), the “Partition Coeff LogD” value in data set [1] was “Poorly Behaved”. This compound registered an EPSA in the data set “EPSA” (EPSA) of 201 A^2. The cell entry EC50 in the data set “in vitro” stood at 2080 nM. The Solubility entry in data set [2] is recorded as “Poorly Behaved”. Moreover, the 50% effective concentration (EC50) in data set [3] (setting [6]) and in data set [3] (setting [7]) was above 50700 nM in each case. Besides, the figures for the “LDH: Cytotoxicity assay: % Effect” value in the data set on HCT116 cells (0% FBS 4Hr) and in the data set on HCT116 cells (10% FBS 16Hr) were 5.433% and 10.66%, respectively.

For orientation: logD means lipophilicity at a set pH, counting ionised and neutral species. For `CC(=O)N[C@@H](CCCCN=[N+]=[N-])C(=O)NCCC(=O)N[C@@H](CC(C)C)C(=O)N[C@H](C(=O)N[C@@H](Cc1ccccc1)C(=O)N[C@]1(C)CCCCCCC=CCCC[C@@](C)(C(=O)N[C@@H](CO)C(=O)N[C@@H](C)C(=O)N[C@@H](C)C(N)=O)NC(=O)[C@H](CCC(N)=O)NC(=O)[C@H](Cc2ccc(O)cc2)NC(=O)[C@H](Cc2c[nH]c3ccccc23)NC(=O)[C@H](CC2CCC2)NC(=O)[C@H](CCC(=O)O)NC(=O)[C@H](C)NC1=O)[C@@H](C)O` [MP-205] (Ac-[Lys(N3)][βAla]LTF[R8]AE[Cba]WYQ[S5]SAA-NH2; staple 6-13), the log distribution coefficient (logD) in data set [1] stood at 3.02. Moreover, the EPSA in the data set “EPSA” (EPSA) was 198 A^2. Also, the cell entry EC50 in the data set “in vitro” (setting [5]) was 276 nM. The solubility kinetic in data set [2] was determined as 16 µM (≈ 31.5 µg/mL). For the same compound, the concentration giving a half-maximal response (EC50) in data set [3] (LDH: Cytotoxicity assay: EC50) was above 50700 nM. In addition, in the data set with HCT116 cells, the “LDH: Cytotoxicity assay: % Effect” value was -2.394%.

`CC(=O)N[C@@H](CCCCN=[N+]=[N-])C(=O)NCCC(=O)N[C@@H](CC(C)C)C(=O)N[C@H](C(=O)N[C@@H](Cc1ccccc1)C(=O)N[C@]1(C)CCCCCCC=CCCC[C@@](C)(C(=O)N[C@@H](CCC(=O)O)C(=O)N[C@@H](CCC(=O)O)C(=O)N[C@@H](C)C(N)=O)NC(=O)[C@H](CC2CCC2)NC(=O)[C@H](CCC(N)=O)NC(=O)[C@H](CCC(=O)O)NC(=O)[C@H](Cc2c[nH]c3ccccc23)NC(=O)[C@H](Cc2ccc(O)cc2)NC(=O)[C@H](CCC(=O)O)NC1=O)[C@@H](C)O` [MP-3684] (Ac-[Lys(N3)][βAla]LTF[R8]EYWEQ[Cba][S5]EEA-NH2; staple 6-13) returned a pH-dependent lipophilicity (logD) in data set [1] of 1.89. In the data set “EPSA”, the EPSA entry is “Poorly Behaved”. In addition, in “in vitro”, the cell entry EC50 stood at 3880 nM. In data set [4], the “off-target effects (LDH release and/or counterscreen activity)” value is listed as “none”. The half-maximal effective concentration (EC50) in data set [3] (setting [6]) and in data set [3] (setting [7]) was above 50700 nM in each case. Further, the “LDH: Cytotoxicity assay: % Effect” value in the data set with HCT116 cells (0% FBS 4Hr) came out at 7.239%; in the data set with HCT116 cells (10% FBS 16Hr), 0.1213%.

`CC(=O)N[C@@H](CCCCN=[N+]=[N-])C(=O)NCCC(=O)N[C@@H](CC(C)C)C(=O)N[C@H](C(=O)N[C@@H](Cc1ccccc1)C(=O)N[C@]1(C)CCCCCCC=CCCC[C@@](C)(C(=O)N[C@@H](CCC(=O)O)C(=O)N[C@@H](CCC(=O)O)C(=O)N[C@@H](C)C(=O)N[C@@H](C)C(=O)N[C@@H](C)C(=O)N[C@@H](C)C(N)=O)NC(=O)[C@H](CC2CCC2)NC(=O)[C@H](CCC(N)=O)NC(=O)[C@H](CCC(=O)O)NC(=O)[C@H](Cc2c[nH]c3ccccc23)NC(=O)[C@H](Cc2ccc(O)cc2)NC(=O)[C@H](CCC(=O)O)NC1=O)[C@@H](C)O` [MP-3685, AZIDE-ATSP-7041 (A8E, EEAAAA TAIL)] (Ac-[Lys(N3)][βAla]LTF[R8]EYWEQ[Cba][S5]EEAAAA-NH2; staple 6-13) came in with a logD in data set [1] of 1.99. Besides, the EPSA in the data set “EPSA” (EPSA) stood at 195 A^2. Further, the cell entry EC50 in the data set “in vitro” is 1260 nM. Besides, the solubility kinetic in data set [2] was 150 µM (≈ 351 µg/mL). The 50% effective concentration (EC50) in data set [3] (setting [6]) and in data set [3] (setting [7]) was above 50700 nM throughout. The “LDH: Cytotoxicity assay: % Effect” value is recorded as 10% with HCT116 cells (0% FBS 4Hr) and -3.573% in the data set with HCT116 cells (10% FBS 16Hr).

The compound `CC(=O)N[C@@H](CCCCN=[N+]=[N-])C(=O)NCCC(=O)N[C@@H](CC(C)C)C(=O)N[C@H](C(=O)N[C@@H](Cc1ccccc1)C(=O)N[C@]1(C)CCCCCCC=CCCC[C@@](C)(C(=O)N[C@@H](CO)C(=O)N[C@@H](C)C(=O)N[C@@H](C)C(N)=O)NC(=O)[C@H](CC2CCC2)NC(=O)[C@H](C)NC(=O)[C@H](CCC(N)=O)NC(=O)[C@H](Cc2c[nH]c3ccccc23)NC(=O)[C@H](Cc2ccc(O)cc2)NC(=O)[C@H](CCC(=O)O)NC1=O)[C@@H](C)O` [MP-4203] (Ac-[Lys(N3)][βAla]LTF[R8]EYWQA[Cba][S5]SAA-NH2; staple 6-13) yielded a logD in data set [1] of 2.71. This compound returned an EPSA in the data set “EPSA” (EPSA) of 190 A^2. Moreover, in “in vitro” (setting [5]), the cell entry EC50 was found to be 1200 nM. Besides, the solubility kinetic in data set [2] was determined as 179 µM (≈ 353 µg/mL). Further, the EC50 in data set [3] (LDH: Cytotoxicity assay: EC50) was above 50700 nM. The “LDH: Cytotoxicity assay: % Effect” value in the data set with HCT116 cells was 15.26%.

Take `CC(=O)N[C@@H](CCCCN=[N+]=[N-])C(=O)NCCC(=O)N[C@@H](CC(C)C)C(=O)N[C@@H](CC1CCC1)C(=O)N[C@@H](Cc1ccc(O)cc1)C(=O)N[C@]1(C)CCCCCCC=CCCC[C@@](C)(C(=O)N[C@@H](C)C(=O)N[C@@H](C)C(=O)N[C@@H](C)C(N)=O)NC(=O)[C@H](Cc2ccccc2)NC(=O)[C@H](Cc2c[nH]c3ccccc23)NC(=O)[C@H](CCC(=O)O)NC(=O)[C@H]([C@@H](C)O)NC(=O)[C@H](CCC(N)=O)NC(=O)[C@H](CO)NC1=O` [MP-4204] (Ac-[Lys(N3)][βAla]L[Cba]Y[R8]SQTEWF[S5]AAA-NH2; staple 6-13): the “Partition Coeff LogD” value in data set [1] is “Poorly Behaved”. The EPSA in “EPSA” (EPSA) worked out at 191 A^2. The cell entry EC50 in the data set “in vitro” (setting [5]) is 669 nM. Moreover, the Solubility result in data set [2] was “Poorly Behaved”. Also, the concentration giving a half-maximal response (EC50) in data set [3] (LDH: Cytotoxicity assay: EC50) was above 50700 nM. Besides, the “LDH: Cytotoxicity assay: % Effect” value with HCT116 cells came out at 16.98%.
